Laboratory results as given in PubChem BioAssay (NCI).
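Five compound concentrations were applied to cells in 96-well plates for 48 hours; endpoints were derived by simple linear interpolation of the resulting dose-response curve. TGI denotes the concentration required for complete inhibition of growth.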

Key:
Experiment in all cases: DTP human tumour cell line panel, 48 h
[1] = tested on: RPMI-8226 leukemia
[2] = tested on: HOP-92 NSCLC
[3] = tested on: NCI-H23 lung
[4] = tested on: SF-268 CNS
[5] = tested on: SR leukemia
[6] = tested on: HCT-116 colon
[7] = tested on: SNB-75 CNS
[8] = tested on: CCRF-CEM leukemia
[9] = tested on: UACC-257 melanoma
[10] = tested on: NCI/ADR-RES ovarian
[11] = tested on: OVCAR-5 ovarian
[12] = tested on: HL-60(TB) leukemia
[13] = tested on: A549 NSCLC
[14] = tested on: OVCAR-3 ovarian
[15] = tested on: COLO 205 colon
[16] = tested on: SK-OV-3 ovarian
[17] = tested on: ACHN renal
[18] = tested on: MDA-MB-231 breast
[19] = tested on: A498 renal
[20] = tested on: SK-MEL-28 melanoma
[21] = tested on: HCT-15 colon
[22] = tested on: UACC-62 melanoma
[23] = tested on: HT29 colon
[24] = tested on: BT-549 breast
[25] = tested on: KM12 colon
[26] = tested on: SK-MEL-2 melanoma
[27] = tested on: PC-3 prostate
[28] = tested on: SNB-19 CNS
[29] = tested on: SF-539 CNS
[30] = tested on: LOX IMVI melanoma
[31] = tested on: SK-MEL-5 melanoma
[32] = tested on: U251 CNS
[33] = tested on: OVCAR-8 ovarian
[34] = tested on: TK-10 renal
[35] = tested on: DU-145 prostate
[36] = tested on: EKVX NSCLC
[37] = tested on: SF-295 CNS
[38] = tested on: NCI-H226 lung
[39] = tested on: MDA-MB-435
[40] = tested on: HS 578T breast
[41] = tested on: M14 melanoma
[42] = tested on: SW-620 colon
[43] = tested on: K-562 leukemia
[44] = tested on: MOLT-4 leukemia
[45] = tested on: UO-31 renal
[46] = tested on: CAKI-1 renal
[47] = tested on: NCI-H460 lung
[48] = tested on: 786-0 renal
[49] = tested on: SN12C renal
[50] = tested on: T-47D breast
[51] = tested on: MDA-N
[52] = tested on: HOP-62 NSCLC
[53] = tested on: IGROV1 ovarian
[54] = tested on: MCF7 breast
[55] = tested on: OVCAR-4 ovarian
[56] = tested on: HCC-2998 colon
[57] = tested on: MALME-3M melanoma
[58] = tested on: RXF 393 renal
[59] = tested on: NCI-H522 lung

O=c1[nH][nH]c(=O)n1/N=C/c1ccccc1
TGI [1]: > 100 µM
TGI [2]: > 100 µM
TGI [3]: > 100 µM
TGI [4]: > 100 µM
TGI [5]: > 100 µM
TGI [6]: > 100 µM
TGI [7]: > 100 µM
TGI [8]: > 100 µM
TGI [9]: > 100 µM
TGI [10]: > 100 µM
TGI [11]: > 100 µM
TGI [12]: > 100 µM
TGI [13]: > 100 µM
TGI [14]: > 100 µM
TGI [15]: > 100 µM
TGI [16]: > 100 µM
TGI [17]: > 100 µM
TGI [18]: > 100 µM
TGI [19]: > 100 µM
TGI [20]: > 100 µM
TGI [21]: > 100 µM
TGI [22]: > 100 µM
TGI [23]: > 100 µM
TGI [24]: > 100 µM
TGI [25]: > 100 µM
TGI [26]: > 100 µM
TGI [27]: > 100 µM
TGI [28]: > 100 µM
TGI [29]: > 100 µM
TGI [30]: > 100 µM
TGI [31]: > 100 µM
TGI [32]: > 100 µM
TGI [33]: > 100 µM
TGI [34]: > 100 µM
TGI [35]: > 100 µM
TGI [36]: > 100 µM
TGI [37]: > 100 µM
TGI [38]: > 100 µM
TGI [39]: > 100 µM
TGI [40]: > 100 µM
TGI [41]: > 100 µM
TGI [42]: > 100 µM
TGI [43]: > 100 µM
TGI [44]: > 100 µM
TGI [45]: > 100 µM
TGI [46]: > 100 µM
TGI [47]: > 100 µM
TGI [48]: > 100 µM
TGI [49]: > 100 µM
TGI [50]: > 100 µM
TGI [51]: > 100 µM
TGI [52]: > 100 µM
TGI [53]: > 100 µM
TGI [54]: > 100 µM

CCOC(=O)OC1C(Br)C2CCC1(C)C2(C)C (stereo not given)
TGI [55]: 25.1 µM
TGI [1]: 20.7 µM
TGI [2]: 27.6 µM
TGI [3]: 31.9 µM
TGI [4]: 29.6 µM
TGI [56]: 25.1 µM
TGI [5]: 5.83 µM
TGI [6]: 20.9 µM
TGI [7]: 24.6 µM
TGI [8]: 17.3 µM
TGI [9]: 29.5 µM
TGI [10]: 32.7 µM
TGI [11]: 31.7 µM
TGI [12]: 20.1 µM
TGI [13]: 30.1 µM
TGI [14]: 28.8 µM
TGI [15]: 26.2 µM
TGI [16]: 29.5 µM
TGI [17]: 29.2 µM
TGI [18]: 24.9 µM
TGI [20]: 29.3 µM
TGI [21]: 27.5 µM
TGI [22]: 32.1 µM
TGI [23]: 18.6 µM
TGI [24]: 31.3 µM
TGI [25]: 28.4 µM
TGI [27]: 23.6 µM
TGI [28]: 28.3 µM
TGI [29]: 28 µM
TGI [30]: 18.9 µM
TGI [31]: 27.6 µM
TGI [32]: 26.6 µM
TGI [57]: 31.3 µM
TGI [33]: 31.7 µM
TGI [58]: 25.1 µM
TGI [34]: 27.8 µM
TGI [35]: 33 µM
TGI [36]: 29.4 µM
TGI [37]: 29.5 µM
TGI [38]: 28.1 µM
TGI [39]: 23.6 µM
TGI [40]: 32.5 µM
TGI [41]: 25.6 µM
TGI [42]: 30.8 µM
TGI [43]: 20.1 µM
TGI [44]: 16.6 µM
TGI [45]: 24.6 µM
TGI [47]: 16.6 µM
TGI [48]: 28.8 µM
TGI [49]: 28.1 µM
TGI [50]: 30.3 µM
TGI [51]: 28.5 µM
TGI [52]: 31.2 µM
TGI [53]: 32.8 µM
TGI [54]: 31.3 µM
TGI [59]: 30.2 µM
